Where “and” joins values, the source holds several entries; their conditions need not be identical. Equal values may be shown once. Read-outs that look alike come from different tables or passages of the source.
Key:
[1] = Water activity (Pawkit water activity meter); type: physicochemical; settings: sorbitol 9.9 molal, fructose 16.6 molal, sucrose 5.3 molal
Procedure: A Pawkit water activity meter uses a dielectric humidity sensor to measure the water activity (aw) of a sample. The unit is accurate to ±0.02 aw. The water activity meter was calibrated, using a 6.0 molal NaCl solution, before each new set of measurements was taken. Each sample was measured in duplicate.

[2] = Viscosity measurements (Bohlin Rheometer), screening and optimization phases; type: physicochemical; settings: sorbitol 9.9 molal, fructose 16.6 molal, sucrose 5.3 molal (highest concentrations studied)
Procedure: 2. Viscosity Measurements
In the screening and optimization phases, described below, viscosity measurements were made using a Bohlin Rheometer, under the following conditions: a 10.0 pascal sheer stress and a continuous, single sweep type at a temperature of 25.0° C.

[3] = cited from earlier work

Water activity of solution [1] | Viscosity of solution [2] | Structure (SMILES) | Dosage with laxative effect ([3]; adults) | Dosage with laxative effect ([3]; children)
0.86 | 119 cps | OC[C@H]1O[C@@](CO)(O[C@H]2O[C@H](CO)[C@@H](O)[C@H](O)[C@H]2O)[C@@H](O)[C@@H]1O [sucrose] | – | –
0.81 | 48 cps | OC[C@@H](O)[C@@H](O)[C@H](O)[C@@H](O)CO [sorbitol] | ≥ 20 grams/day | greater than 0.5 g/kg body weight

Structure (SMILES) | Water activity of solution [1] | Viscosity of solution [2] | Dosage with laxative effect ([3]; adults) | Dosage with laxative effect ([3]; children)
O=C(CO)[C@@H](O)[C@H](O)[C@H](O)CO [fructose] | 0.70 | 429 cps and 439 cps | – | –

Reference: patent US20040191326A1, “Taste-masking vehicle for coated oxazolidinone particles” (priority 2003, published 2004)
